# Assay results taken from patent US10888551B2, “Drug delivery system” (Indian Institute of Technology, Bombay, priority 2016, dated 2021).
# Counter-ions that a name gives are not always drawn.
# Test system: KB cells
# Assay: Cell migration wound healing assay
# Type: cell-based, Human
# Conditions: 10 μM, 9 hours
compound,measurement,setting,value
"CNC(=O)c1cc(Oc2ccc(NC(=O)Nc3ccc(Cl)c(C(F)(F)F)c3)cc2)ccn1 [Sraf, Sorafenib tosylate]",retardation of migration of KB cells,,30±9%
same,width of the wound,control 525±23 μm at 0 h,303±27 μm
